Test results: patent US8252822B2, “Heterocyclic compounds and uses as anticancer agents” (Acea Biosciences, Inc., priority 2007, dated 2012)
Like-named read-outs stand apart in the source and are kept apart here.

Legend:
[1] = system: a number of cancer cell lines (MCF7adr, PC3, KB, KB200, Bcap37); experiment: RT-CES time-dependent cell index, a number of cancer cell lines (FIG. 10, 11); type: cell-based, human; settings: various concentrations
From the text: (§1) The biological activity of compounds disclosed herein was monitored and profiled using the Real-Time Cell Electronic Sensing (RT-CES®) system from ACEA Biosciences, Inc. The RT-CES system utilizes cell-substrate impedance technology to monitor cellular behavior inside tissue culture wells in a microtiter plate format. The technology features in the integration of molecular and cell biology with microelectronics and is based on the electronic detection of biological assay process. The details of this cell electronic sensing technology and associated devices, systems and methods of use as described in U.S. provisional application No. 60/379,749, filed on Jul. […]
(§2) For measurement of cell-substrate or cell-electrode impedance using RT-CES technology, microelectrodes having appropriate geometries are fabricated onto the bottom surfaces of microtiter plate or similar device, facing into the wells. […] When there are changes to the biological status of the cells analogue electronic readout signals are measured automatically and in real time, and are converted to digital signals for processing and for analysis. In a RT-CES system, a cell index (arbitrary representation of change in impedance) is automatically derived and provided based on measured electrode impedance values. […]
(§3) To quantify cell status based on the measured cell-electrode impedance, a parameter termed Cell Index is derived. […]

[2] = system: S180 sarcoma; experiment: Anti-tumor activity against S180 bearing mouse model; type: in vivo, ICR mice; settings: for Inhibition Rate (%) / Tumor Weight: qd for 9 days; for Body Weight (g) Start: mouse, in vivo
Experimental: ACEA100160 (2-(4-ethoxyphenyl)amino-4-(6-methylimidazo[1,2-a]pyrimidin-3-yl)thiazole) and ACEA 100162 (2-(4-ethoxyphenyl)amino-4-(6-methylimidazo[2,1-b]thiazol-5-yl)thiazole) are prepared at concentration of 8 mg/ml in solution containing 20% HP-beta-CD dextrose (D5W). The solvent HP-beta-CD solution is used as a vehicle negative control.
ICR mice, male, 21.4±1.5 g
S180 sarcoma: murine cancer cell line S180.
The malignant ascites model of ICR mouse was induced by S180 cells.
Under a sterilized condition, sacrifice the ICR murine S180 bearing mice, take out of the ascites and dilute with NS to certain cell numbers. Inject 0.2 ml cell suspension (10^6 cells) subcutaneously into the left flank on ICR mice. On the first treatment day before iv or ip, implanted animals are randomly divided into ten groups as following. The drugs were administrated in the schedule of Table 11 respectively. The solvent HP-beta-CD solution is used as a vehicle negative control. Observe clinical signs at least daily.
Tumor weight was recorded. The tumor inhibitory rate was calculated as follows: inhibitory rate=1-Wt/W0, where Wt is the average weight of each drug treatment group and W0 is the average weight of negative control group. Results are given as mean±SD values from n animals. Comparisons between groups were made with Student's two-tailed t test and a P<0.05 was considered significant.

[3] = system: MKN45; experiment: RT-CES cell proliferation inhibition, MKN45; type: cell-based; settings: Homo sapiens, MKN-45
From the text: as §1, §2, §3

[4] = system: Panc-1; experiment: RT-CES cell proliferation inhibition, Panc-1; type: cell-based; settings: Homo sapiens
From the text: as §1, §2, §3

[5] = system: HT1080; experiment: RT-CES cell proliferation inhibition, HT1080; type: cell-based; settings: Homo sapiens, HT-1080
From the text: as §1, §2, §3

[6] = system: KB; experiment: RT-CES cell proliferation inhibition, KB; type: cell-based; settings: Homo sapiens
From the text: as §1, §2, §3

- IC50 ([3]; MKN45, 24 hrs, read-out: IC50 (24 hr)): > 200 nM
- IC50 ([3]; MKN45, 48 hrs, read-out: IC50 (48 hr)): > 200 nM
- IC50 ([4]; Panc-1, 24 hrs, read-out: IC50 (24 hr)): 113 nM
- IC50 ([4]; Panc-1, 48 hrs, read-out: IC50 (48 hr)): 426 nM
- IC50 ([5]; HT1080, 24 hrs, read-out: IC50 (24 hr)): 2.39 nM
- IC50 ([5]; HT1080, 48 hrs, read-out: IC50 (48 hr)): 2.69 nM
- IC50 ([6]; 24 hrs, read-out: IC50 (24 hr)): 22.2 nM
- IC50 ([6]; 48 hrs, read-out: IC50 (48 hr)): 18.1 nM
SMILES: Br.CCOc1ccc(Nc2nc(-c3c(C)nc4sccn34)cs2)cc1 [Compound 27, 2-(4-ethoxyphenyl)amino-4-(6-methylimidazo[2,1-b]thiazol-5-yl)thiazole]
- inhibitory effect on the proliferation of a number of cancer cell lines [1]: exhibited inhibitory effect on the proliferation of a number of cancer cell lines
- Inhibition Rate (%) ([2]; S180, IP, 40 mg/kg): 59.3%
- Tumor Weight ([2]; S180, IP, 40 mg/kg): 0.61 ± 0.21 g
- Inhibition Rate (%) ([2]; S180, IP, 80 mg/kg): 77.2%
- Tumor Weight ([2]; S180, IP, 80 mg/kg): 0.34 ± 0.16 g
- Inhibition Rate (%) ([2]; S180, IV, 40 mg/kg): 60.7%
- Tumor Weight ([2]; S180, IV, 40 mg/kg): 0.59 ± 0.24 g
- Body Weight (g) Start ([2]; ip, 40 mg/kg): 20.6 ± 0.4 g
- Body Weight (g) Start ([2]; ip, 80 mg/kg): 21.8 ± 1.5 g
- Body Weight (g) Start ([2]; iv, 40 mg/kg): 21.0 ± 0.4 g
